One compound from article PMC4921870, “The insect repellent N,N-diethyl-m-toluamide (DEET) induces angiogenesis via allosteric modulation of the M3 muscarinic receptor in endothelial cells” (Scientific Reports, 2016) can be followed below.

The experiment addresses T1, M3 muscarinic receptor (Homo sapiens, UniProt P20309).
T1 construct: gene CHRM3; recombinant M3 receptor expressed in HEK-293 cells (HEK-293/M3)
Description: leftward shift of carbachol Ca2+ response in HEK-293/M3 cells (fluo-4); [3H]-4-DAMP not displaced. The experiment is classed as cell-based.

T1 sequence (P20309 whole entry): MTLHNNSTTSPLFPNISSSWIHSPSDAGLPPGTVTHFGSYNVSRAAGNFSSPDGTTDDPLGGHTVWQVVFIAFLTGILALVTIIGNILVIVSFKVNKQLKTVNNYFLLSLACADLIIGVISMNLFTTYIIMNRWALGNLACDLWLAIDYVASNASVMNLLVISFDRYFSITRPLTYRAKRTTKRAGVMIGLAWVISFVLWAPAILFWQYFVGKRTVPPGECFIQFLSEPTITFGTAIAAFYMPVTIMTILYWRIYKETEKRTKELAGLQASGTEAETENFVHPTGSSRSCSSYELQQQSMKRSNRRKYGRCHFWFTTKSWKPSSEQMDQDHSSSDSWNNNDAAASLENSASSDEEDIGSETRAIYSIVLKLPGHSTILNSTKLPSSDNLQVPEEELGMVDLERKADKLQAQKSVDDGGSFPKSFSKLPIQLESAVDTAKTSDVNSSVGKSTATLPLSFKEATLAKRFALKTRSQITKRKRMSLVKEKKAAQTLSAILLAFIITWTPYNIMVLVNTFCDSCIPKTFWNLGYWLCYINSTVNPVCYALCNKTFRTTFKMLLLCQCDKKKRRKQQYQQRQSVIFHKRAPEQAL

Consider `CCN(CC)C(=O)c1cccc(C)c1` [DEET, N,N-diethyl-meta-toluamide], for which the “leftward shift of carbachol Ca2+ response in HEK-293/M3 cells (fluo-4); [3H]-4-D” value is reported as “Whatever the concentration of DEET used, it was able to induce a leftward shift of the calcium response induced by carbachol”.
